Measured values reported in ChEMBL document CHEMBL3046799, “Synthesis and in vivo anticancer and antiangiogenic effects of novel thioxothiazolidin-4-one derivatives against transplantable mouse tumor” (2010).
Active and inactive are the calls of the source. The calls are words filed in the database; no cut-off is given here.

Assays:
EAT [1] = assay: Antiangiogenic activity in Mus musculus (mouse) EAT xenografted in Mus musculus (mouse) assessed as reduction of vascularization at 100 mg/kg, ip administered day 7 to 11 post tumor implantation measured on day 12 relative to control; format: functional, organism-based; parameters: dose 100 mg/kg
EAT [2] = assay: (§1) Antitumor activity against Mus musculus (mouse) EAT xenografted in Mus musculus (mouse) assessed as decrease in tumor volume at 100 mg/kg, ip administered day 7 to 11 post tumor implantation measured on day 12 (reference value: 7.6 +/- 0.9 ml); format: functional
[3] = Antitumor activity against Mus musculus (mouse) EAT xenografted in Mus musculus (mouse) assessed as increase in life span at 100 mg/kg, ip administered day 7 to 11 post tumor implantation measured up to 28 days relative to control; format: functional; settings: route intraperitoneal
EAT [4] = assay: Antitumor activity against Mus musculus (mouse) EAT xenografted in Mus musculus (mouse) assessed as decrease in body weight at 100 mg/kg, ip administered day 7 to 11 post tumor implantation measured on day 12 relative to control
[5] = as §1; format: functional; settings: route intraperitoneal

SMILES | Activity (EAT [1]) | Activity (EAT [2]) | Activity [3] | Activity (EAT [4]) | Activity [5]
O=C(CN1C(=O)/C(=C/c2ccc(-c3ccc(Cl)cc3)o2)SC1=S)Nc1ccon1 | Active | Active | 18.25% | Active | 
COc1ccc(CCNC(=O)CN2C(=O)/C(=C/c3ccc(-c4ccc(Cl)cc4)o3)SC2=S)cc1 | Active |  | 37.5% | Active | 5.7 mL
Cc1nc(-c2ccc(NC(=O)CN3C(=O)/C(=C/c4ccc(-c5ccc(Cl)cc5)o4)SC3=S)cc2)no1 | Active |  | 43.75% | Active | 5.2 mL
CCCCNC(=O)CN1C(=O)/C(=C/c2ccc(-c3ccc(Cl)cc3)o2)SC1=S | Active |  | 12.5% | Active | 
COC(=O)C(Cc1ccc(O)cc1)NC(=O)CN1C(=O)/C(=C/c2ccc(-c3ccc(Cl)cc3)o2)SC1=S (configuration not stated) | Active | Active | 25% | Active | 
O=C(CN1C(=O)/C(=C/c2ccc(-c3ccc(Cl)cc3)o2)SC1=S)N1CCN(c2ccccc2F)CC1 | Active | Active | 31.25% | Active | 
COc1ccc(Cn2nc(C3CC3)cc2NC(=O)CN2C(=O)/C(=C/c3ccc(-c4ccc(Cl)cc4)o3)SC2=S)cc1 | Active |  | 56.25% | Active | 4.8 mL
